Measurements from patent US8680139B2 (Progenra, priority 2009, dated 2014).

Target: T1, USP7 (Homo sapiens, UniProt Q93009)
T1 construct: full length human USP7 protein; made in house
Assay: USP7, Ub-PLA2 assay
Format: biochemical
Conditions: Ub-PLA2 / NBD C6-HPC fluorescence, 30 minute preincubation; read-out: EC50 for inhibition of USP7
Method: The purpose of this assay is to measure the inhibition of USP7 by various compounds of the invention synthesized according to the above-described methods. […] The vehicle control was 100% (v/v) DMSO. 1.6 μL aliquots of the diluted test compound and controls were dispensed into individual wells in a black walled 96 well plate. […] The data were normalized within a plate relative to the control wells using the equation % inhibition=(100−(((RFUcompound−RFUmean NEM) / (RFUmean DMSO−RFUmean NEM))×100)).

T1 sequence (Q93009 whole entry): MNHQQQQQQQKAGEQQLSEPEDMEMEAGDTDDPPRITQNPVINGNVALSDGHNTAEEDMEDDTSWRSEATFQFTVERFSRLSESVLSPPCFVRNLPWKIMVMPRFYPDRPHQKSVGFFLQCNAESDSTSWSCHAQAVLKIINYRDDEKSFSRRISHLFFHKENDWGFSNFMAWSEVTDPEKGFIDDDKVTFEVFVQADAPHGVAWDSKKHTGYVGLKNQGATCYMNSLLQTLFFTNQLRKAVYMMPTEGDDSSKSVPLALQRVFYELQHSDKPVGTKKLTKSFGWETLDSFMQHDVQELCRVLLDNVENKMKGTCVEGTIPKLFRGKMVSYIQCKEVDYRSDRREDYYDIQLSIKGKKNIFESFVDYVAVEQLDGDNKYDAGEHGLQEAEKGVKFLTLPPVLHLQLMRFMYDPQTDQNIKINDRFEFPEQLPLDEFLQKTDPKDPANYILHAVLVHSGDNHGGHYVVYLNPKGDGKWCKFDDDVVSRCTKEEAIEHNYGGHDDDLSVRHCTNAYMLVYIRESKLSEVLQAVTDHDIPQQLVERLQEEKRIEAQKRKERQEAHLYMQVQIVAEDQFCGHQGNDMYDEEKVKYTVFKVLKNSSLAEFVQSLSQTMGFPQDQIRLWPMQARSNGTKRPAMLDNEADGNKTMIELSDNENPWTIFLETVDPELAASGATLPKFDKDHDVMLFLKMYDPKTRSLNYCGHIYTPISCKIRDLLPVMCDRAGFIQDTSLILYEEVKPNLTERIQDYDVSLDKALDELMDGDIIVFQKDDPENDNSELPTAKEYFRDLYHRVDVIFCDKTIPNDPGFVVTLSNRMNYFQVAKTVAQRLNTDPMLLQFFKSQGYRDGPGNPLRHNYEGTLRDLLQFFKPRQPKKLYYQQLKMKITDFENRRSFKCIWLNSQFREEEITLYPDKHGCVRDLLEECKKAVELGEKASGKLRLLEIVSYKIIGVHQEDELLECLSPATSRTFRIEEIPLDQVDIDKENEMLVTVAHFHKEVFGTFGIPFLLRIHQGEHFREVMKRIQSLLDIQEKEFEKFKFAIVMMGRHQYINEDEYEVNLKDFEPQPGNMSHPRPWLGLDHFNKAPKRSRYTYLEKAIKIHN

| SMILES | EC50 |
| --- | --- |
| CN(C)c1ccc(NC(=O)c2cc([N+](=O)[O-])c(Sc3c(Cl)cncc3Cl)s2)cc1 [Example 86, 5-((3,5-dichloropyridin-4-yl)thio)-N-(4-(dimethylamino)phenyl)-4-nitrothiophene-2-carboxamide] | 1000 to 10000 nM |
| Cc1csc(NC(=O)c2cc([N+](=O)[O-])c(Sc3c(Cl)cncc3Cl)s2)n1 [Example 87, 5-((3,5-dichloropyridin-4-yl)thio)-N-(4-methylthiazol-2-yl)-4-nitrothiophene-2-carboxamide] | 1000 to 10000 nM |
| Cc1cnc(NC(=O)c2cc([N+](=O)[O-])c(Sc3c(Cl)cncc3Cl)s2)s1 [Example 89] | 1000 to 10000 nM |
| CN1CCC(O)(CNC(=O)c2cc([N+](=O)[O-])c(Sc3c(Cl)cncc3Cl)s2)CC1 [Example 90, 5-((3,5-dichloropyridin-4-yl)thio)-N-((4-hydroxy-1-methylpiperidin-4-yl)methyl)-4-nitrothiophene-2-carboxamide] | 1000 to 10000 nM |
| CCN1C[C@H](NC(=O)c2cc([N+](=O)[O-])c(Sc3c(Cl)cncc3Cl)s2)[C@@H](OC)C1 [Example 92, 5-((3,5-dichloropyridin-4-yl)thio)-N-((3S,4S)-1-ethyl-4-methoxypyrrolidin-3-yl)-4-nitrothiophene-2-carboxamide] | 1000 to 10000 nM |
| CN1CCC(NC(=O)c2cc([N+](=O)[O-])c(Sc3c(Cl)cncc3Cl)s2)C1 (stereo not shown) [Example 94, 5-((3,5-dichloropyridin-4-yl)thio)-N-(1-methylpyrrolidin-3-yl)-4-nitrothiophene-2-carboxamide] | 1000 to 10000 nM |
| O=C(NC1CCCNC1=O)c1cc([N+](=O)[O-])c(Sc2c(Cl)cncc2Cl)s1 (stereo not shown) [Example 95, 5-((3,5-dichloropyridin-4-yl)thio)-4-nitro-N-(2-oxopiperidin-3-yl)thiophene-2-carboxamide] | 1000 to 10000 nM |
| COc1cccc(CNC(=O)c2cc([N+](=O)[O-])c(Sc3c(Cl)cncc3Cl)s2)c1OC [Example 97, 5-((3,5-dichloropyridin-4-yl)thio)-N-(2,3-dimethoxybenzyl)-4-nitrothiophene-2-carboxamide] | ≤ 1000 nM |
| COc1cccc(CNC(=O)c2cc([N+](=O)[O-])c(Sc3c(Cl)cncc3Cl)s2)c1 [Example 99, 5-((3,5-dichloropyridin-4-yl)thio)-N-(3-methoxybenzyl)-4-nitrothiophene-2-carboxamide] | ≤ 1000 nM |
| O=C(NCCCN1CCCCC1)c1cc([N+](=O)[O-])c(Sc2c(Cl)cncc2Cl)s1 [Example 100, 5-((3,5-dichloropyridin-4-yl)thio)-4-nitro-N-(3-(piperidin-1-yl)propyl)thiophene-2-carboxamide] | ≤ 1000 nM |
| O=C(NCCCN1CCCC1=O)c1cc([N+](=O)[O-])c(Sc2c(Cl)cncc2Cl)s1 [Example 104, 5-((3,5-dichloropyridin-4-yl)thio)-4-nitro-N-(3-(2-oxopyrrolidin-1-yl)propyl)thiophene-2-carboxamide] | ≤ 1000 nM |
| O=C(NCc1ccc(F)cc1)c1cc([N+](=O)[O-])c(Sc2c(Cl)cncc2Cl)s1 [Example 107, 5-((3,5-dichloropyridin-4-yl)thio)-N-(4-fluorobenzyl)-4-nitrothiophene-2-carboxamide] | ≤ 1000 nM |
| O=C(NCCc1cccnc1)c1cc([N+](=O)[O-])c(Sc2c(Cl)cncc2Cl)s1 [Example 108, 5-((3,5-dichloropyridin-4-yl)thio)-4-nitro-N-(2-(pyridin-3-yl)ethyl)thiophene-2-carboxamide] | ≤ 1000 nM |
| O=C(NCCc1ccccn1)c1cc([N+](=O)[O-])c(Sc2c(Cl)cncc2Cl)s1 [Example 109, 5-((3,5-dichloropyridin-4-yl)thio)-4-nitro-N-(2-(pyridin-2-yl)ethyl)thiophene-2-carboxamide] | ≤ 1000 nM |
| CC(C)CCNC(=O)c1cc([N+](=O)[O-])c(Sc2c(Cl)cncc2Cl)s1 [Example 110, 5-((3,5-dichloropyridin-4-yl)thio)-N-isopentyl-4-nitrothiophene-2-carboxamide] | ≤ 1000 nM |
| O=C(Nc1ccc2c(c1)CCC2)c1cc([N+](=O)[O-])c(Sc2c(Cl)cncc2Cl)s1 [Example 112] | ≤ 1000 nM |
| O=C(NCc1ccc(OC(F)(F)F)cc1)c1cc([N+](=O)[O-])c(Sc2c(Cl)cncc2Cl)s1 [Example 114, 5-((3,5-dichloropyridin-4-yl)thio)-4-nitro-N-(4-(trifluoromethoxy)benzyl)thiophene-2-carboxamide] | ≤ 1000 nM |
| O=C(NCCN1CCN(Cc2ccccc2)CC1)c1cc([N+](=O)[O-])c(Sc2c(Cl)cncc2Cl)s1 [Example 117, N-(2-(4-benzylpiperazin-1-yl)ethyl)-5-((3,5-dichloropyridin-4-yl)thio)-4-nitrothiophene-2-carboxamide] | ≤ 1000 nM |
| O=C(NCc1ccc(Br)cc1)c1cc([N+](=O)[O-])c(Sc2c(Cl)cncc2Cl)s1 [Example 118, N-(4-bromobenzyl)-5-((3,5-dichloropyridin-4-yl)thio)-4-nitrothiophene-2-carboxamide] | ≤ 1000 nM |
| COCCCNC(=O)c1cc([N+](=O)[O-])c(Sc2c(Cl)cncc2Cl)s1 [Example 119, 5-((3,5-dichloropyridin-4-yl)thio)-N-(3-methoxypropyl)-4-nitrothiophene-2-carboxamide] | ≤ 1000 nM |
| O=C(NCCc1ccc(F)cc1)c1cc([N+](=O)[O-])c(Sc2c(Cl)cncc2Cl)s1 [Example 120, 5-((3,5-dichloropyridin-4-yl)thio)-N-(4-fluorophenethyl)-4-nitrothiophene-2-carboxamide] | ≤ 1000 nM |
| CN(C)c1ccc(CNC(=O)c2cc([N+](=O)[O-])c(Sc3c(Cl)cncc3Cl)s2)cc1 [Example 121, 5-((3,5-dichloropyridin-4-yl)thio)-N-(4-(dimethylamino)benzyl)-4-nitrothiophene-2-carboxamide] | ≤ 1000 nM |
| CC(=O)Nc1cccc(CNC(=O)c2cc([N+](=O)[O-])c(Sc3c(Cl)cncc3Cl)s2)c1 [Example 122, N-(3-acetamidobenzyl)-5-((3,5-dichloropyridin-4-yl)thio)-4-nitrothiophene-2-carboxamide] | ≤ 1000 nM |

The next lines start with the values.

| EC50 | SMILES |
| --- | --- |
| 1000 to 10000 nM | CC(C)(C)OC(=O)N1CCC(NC(=O)c2cc([N+](=O)[O-])c(Sc3c(Cl)cncc3Cl)s2)CC1 [Example 85, tert-butyl 4-(5-((3,5-dichloropyridin-4-yl)thio)-4-nitrothiophene-2-carboxamido)piperidine-1-carboxylate] |
| 1000 to 10000 nM | Cc1nc(NC(=O)c2cc([N+](=O)[O-])c(Sc3c(Cl)cncc3Cl)s2)sc1C [Example 88, 5-((3,5-dichloropyridin-4-yl)thio)-N-(4,5-dimethylthiazol-2-yl)-4-nitrothiophene-2-carboxamide] |
| 1000 to 10000 nM | CCN1CCC(CNC(=O)c2cc([N+](=O)[O-])c(Sc3c(Cl)cncc3Cl)s2)C1 (stereo not shown) [Example 91, 5-((3,5-dichloropyridin-4-yl)thio)-N-((1-ethylpyrrolidin-3-yl)methyl)-4-nitrothiophene-2-carboxamide] |
| 1000 to 10000 nM | COCCN1CC(NC(=O)c2cc([N+](=O)[O-])c(Sc3c(Cl)cncc3Cl)s2)CC1=O (stereo not shown) [Example 93, 5-((3,5-dichloropyridin-4-yl)thio)-N-(1-(2-methoxyethyl)-5-oxopyrrolidin-3-yl)-4-nitrothiophene-2-carboxamide] |
| ≤ 1000 nM | O=C(NCCc1ccccc1)c1cc([N+](=O)[O-])c(Sc2c(Cl)cncc2Cl)s1 [Example 96, 5-((3,5-dichloropyridin-4-yl)thio)-4-nitro-N-phenethylthiophene-2-carboxamide] |
| ≤ 1000 nM | COc1ccc(CNC(=O)c2cc([N+](=O)[O-])c(Sc3c(Cl)cncc3Cl)s2)cc1OC [Example 98, 5-((3,5-dichloropyridin-4-yl)thio)-N-(3,4-dimethoxybenzyl)-4-nitrothiophene-2-carboxamide] |
| ≤ 1000 nM | O=C(NCc1cccnc1)c1cc([N+](=O)[O-])c(Sc2c(Cl)cncc2Cl)s1 [Example 101, 5-((3,5-dichloropyridin-4-yl)thio)-4-nitro-N-(pyridin-3-ylmethyl)thiophene-2-carboxamide] |
| ≤ 1000 nM | CS(=O)(=O)c1ccc(CNC(=O)c2cc([N+](=O)[O-])c(Sc3c(Cl)cncc3Cl)s2)cc1 [Example 102, 5-((3,5-dichloropyridin-4-yl)thio)-N-(4-(methylsulfonyl)benzyl)-4-nitrothiophene-2-carboxamide] |
| ≤ 1000 nM | O=C(NCCc1ccc(Br)cc1)c1cc([N+](=O)[O-])c(Sc2c(Cl)cncc2Cl)s1 [Example 105, N-(4-bromophenethyl)-5-((3,5-dichloropyridin-4-yl)thio)-4-nitrothiophene-2-carboxamide] |
| ≤ 1000 nM | O=C(NCc1ccc(Cl)cc1)c1cc([N+](=O)[O-])c(Sc2c(Cl)cncc2Cl)s1 [Example 106, N-(4-chlorobenzyl)-5-((3,5-dichloropyridin-4-yl)thio)-4-nitrothiophene-2-carboxamide] |
| ≤ 1000 nM | O=C(NCCc1ccccc1F)c1cc([N+](=O)[O-])c(Sc2c(Cl)cncc2Cl)s1 [Example 111, 5-((3,5-dichloropyridin-4-yl)thio)-N-(2-fluorophenethyl)-4-nitrothiophene-2-carboxamide] |
| ≤ 1000 nM | COc1ccccc1CCNC(=O)c1cc([N+](=O)[O-])c(Sc2c(Cl)cncc2Cl)s1 [Example 113, 5-((3,5-dichloropyridin-4-yl)thio)-N-(2-methoxyphenethyl)-4-nitrothiophene-2-carboxamide] |
| ≤ 1000 nM | O=C(NCCCc1ccccn1)c1cc([N+](=O)[O-])c(Sc2c(Cl)cncc2Cl)s1 [Example 115, 5-((3,5-dichloropyridin-4-yl)thio)-4-nitro-N-(3-(pyridin-2-yl)propyl)thiophene-2-carboxamide] |
| ≤ 1000 nM | O=C(Nc1ccccc1)c1cc([N+](=O)[O-])c(Sc2c(Cl)cncc2Cl)s1 [Example 116, 5-((3,5-dichloropyridin-4-yl)thio)-4-nitro-N-phenylthiophene-2-carboxamide] |
